Measured values: PubChem BioAssay (NCI)
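Tested at 5 concentrations; 48 h exposure; 96-well plates; endpoints linearly interpolated, else capped at highest concentration. Definition used: TGI = concentration required for complete inhibition of growth.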

Columns and labels:
Assay in all cases: NCI tumour cell line growth inhibition, 48 h
SF-295 CNS = tested on: SF-295 CNS
SNB-75 CNS = tested on: SNB-75 CNS
LXFL 529 NSCLC = tested on: LXFL 529 NSCLC
HT29 colon = tested on: HT29 colon
K-562 leukemia = tested on: K-562 leukemia
SK-MEL-5 melanoma = tested on: SK-MEL-5 melanoma
HOP-62 NSCLC = tested on: HOP-62 NSCLC
A498 renal = tested on: A498 renal
NCI-H23 lung = tested on: NCI-H23 lung
HL-60(TB) leukemia = tested on: HL-60(TB) leukemia
SN12C renal = tested on: SN12C renal
HCC-2998 colon = tested on: HCC-2998 colon
786-0 renal = tested on: 786-0 renal
SF-268 CNS = tested on: SF-268 CNS
SNB-19 CNS = tested on: SNB-19 CNS
XF 498 CNS = tested on: XF 498 CNS
SK-MEL-2 melanoma = tested on: SK-MEL-2 melanoma
KM20L2 colon = tested on: KM20L2 colon
OVCAR-8 ovarian = tested on: OVCAR-8 ovarian
MALME-3M melanoma = tested on: MALME-3M melanoma
NCI-H226 lung = tested on: NCI-H226 lung
MOLT-4 leukemia = tested on: MOLT-4 leukemia
A549 NSCLC = tested on: A549 NSCLC
EKVX NSCLC = tested on: EKVX NSCLC
DMS 273 small cell lung = tested on: DMS 273 small cell lung
SR leukemia = tested on: SR leukemia
SW-620 colon = tested on: SW-620 colon
UACC-257 melanoma = tested on: UACC-257 melanoma
UACC-62 melanoma = tested on: UACC-62 melanoma
DLD-1 colon = tested on: DLD-1 colon
HCT-116 colon = tested on: HCT-116 colon
RPMI-8226 leukemia = tested on: RPMI-8226 leukemia
LOX IMVI melanoma = tested on: LOX IMVI melanoma
NCI-H460 lung = tested on: NCI-H460 lung
HCT-15 colon = tested on: HCT-15 colon
M14 melanoma = tested on: M14 melanoma
SNB-78 CNS = tested on: SNB-78 CNS
KM12 colon = tested on: KM12 colon
TK-10 renal = tested on: TK-10 renal
SF-539 CNS = tested on: SF-539 CNS
HOP-18 NSCLC = tested on: HOP-18 NSCLC
SK-MEL-28 melanoma = tested on: SK-MEL-28 melanoma
IGROV1 ovarian = tested on: IGROV1 ovarian
OVCAR-4 ovarian = tested on: OVCAR-4 ovarian
UO-31 renal = tested on: UO-31 renal
CCRF-CEM leukemia = tested on: CCRF-CEM leukemia
OVCAR-5 ovarian = tested on: OVCAR-5 ovarian
ACHN renal = tested on: ACHN renal
RXF 393 renal = tested on: RXF 393 renal
HOP-92 NSCLC = tested on: HOP-92 NSCLC
M19-MEL melanoma = tested on: M19-MEL melanoma
CAKI-1 renal = tested on: CAKI-1 renal
OVCAR-3 ovarian = tested on: OVCAR-3 ovarian
DMS 114 small cell lung = tested on: DMS 114 small cell lung
SK-OV-3 ovarian = tested on: SK-OV-3 ovarian
NCI-H522 lung = tested on: NCI-H522 lung
COLO 205 colon = tested on: COLO 205 colon
RXF-631 renal = tested on: RXF-631 renal
U251 CNS = tested on: U251 CNS

Structure (SMILES): C/C(CCn1[nH]c(=O)ccc1=O)=N\N=C(N)N
- TGI (SF-295 CNS): > 100 µM
- TGI (SNB-75 CNS): > 100 µM
- TGI (LXFL 529 NSCLC): > 100 µM
- TGI (HT29 colon): > 100 µM
- TGI (K-562 leukemia): > 100 µM
- TGI (SK-MEL-5 melanoma): > 100 µM
- TGI (HOP-62 NSCLC): > 100 µM
- TGI (A498 renal): > 100 µM
- TGI (NCI-H23 lung): > 100 µM
- TGI (HL-60(TB) leukemia): > 100 µM
- TGI (SN12C renal): > 100 µM
- TGI (HCC-2998 colon): > 100 µM
- TGI (786-0 renal): > 100 µM
- TGI (SF-268 CNS): > 100 µM
- TGI (SNB-19 CNS): > 100 µM
- TGI (XF 498 CNS): > 100 µM
- TGI (SK-MEL-2 melanoma): > 100 µM
- TGI (KM20L2 colon): > 100 µM
- TGI (OVCAR-8 ovarian): > 100 µM
- TGI (MALME-3M melanoma): > 100 µM
- TGI (NCI-H226 lung): > 100 µM
- TGI (MOLT-4 leukemia): > 100 µM
- TGI (A549 NSCLC): > 100 µM
- TGI (EKVX NSCLC): > 100 µM
- TGI (DMS 273 small cell lung): > 100 µM
- TGI (SR leukemia): > 100 µM
- TGI (SW-620 colon): > 100 µM
- TGI (UACC-257 melanoma): > 100 µM
- TGI (UACC-62 melanoma): > 100 µM
- TGI (DLD-1 colon): > 100 µM
- TGI (HCT-116 colon): > 100 µM
- TGI (RPMI-8226 leukemia): > 100 µM
- TGI (LOX IMVI melanoma): > 100 µM
- TGI (NCI-H460 lung): > 100 µM
- TGI (HCT-15 colon): > 100 µM
- TGI (M14 melanoma): > 100 µM
- TGI (SNB-78 CNS): > 100 µM
- TGI (KM12 colon): > 100 µM
- TGI (TK-10 renal): > 100 µM
- TGI (SF-539 CNS): > 100 µM
- TGI (HOP-18 NSCLC): > 100 µM
- TGI (SK-MEL-28 melanoma): > 100 µM
- TGI (IGROV1 ovarian): > 100 µM
- TGI (OVCAR-4 ovarian): > 100 µM
- TGI (UO-31 renal): > 100 µM
- TGI (CCRF-CEM leukemia): > 100 µM
- TGI (OVCAR-5 ovarian): > 100 µM
- TGI (ACHN renal): > 100 µM
- TGI (RXF 393 renal): > 100 µM
- TGI (HOP-92 NSCLC): > 100 µM
- TGI (M19-MEL melanoma): > 100 µM
- TGI (CAKI-1 renal): > 100 µM
- TGI (OVCAR-3 ovarian): > 100 µM
- TGI (DMS 114 small cell lung): > 100 µM

Structure (SMILES): CN(C)CC1CCC(=C2CCCC2)C1=O (centres undefined)
- TGI (SF-295 CNS): > 100 µM
- TGI (SNB-75 CNS): 30.7 µM
- TGI (LXFL 529 NSCLC): 12.6 µM
- TGI (HT29 colon): 32.6 µM
- TGI (K-562 leukemia): 8.76 µM
- TGI (SK-MEL-5 melanoma): 32 µM
- TGI (HOP-62 NSCLC): 19.1 µM
- TGI (A498 renal): 35.4 µM
- TGI (NCI-H23 lung): 36.3 µM
- TGI (HL-60(TB) leukemia): 15.4 µM
- TGI (SN12C renal): 24.9 µM
- TGI (HCC-2998 colon): 32.5 µM
- TGI (786-0 renal): 19.7 µM
- TGI (SK-OV-3 ovarian): > 100 µM
- TGI (SF-268 CNS): 26.4 µM
- TGI (SNB-19 CNS): > 100 µM
- TGI (XF 498 CNS): 12.4 µM
- TGI (SK-MEL-2 melanoma): 33.5 µM
- TGI (KM20L2 colon): 36.3 µM
- TGI (OVCAR-8 ovarian): 39.1 µM
- TGI (MALME-3M melanoma): 11 µM
- TGI (NCI-H226 lung): 32.2 µM
- TGI (MOLT-4 leukemia): > 20.7 µM
- TGI (A549 NSCLC): 39.8 µM
- TGI (EKVX NSCLC): 34.7 µM
- TGI (DMS 273 small cell lung): 34.8 µM
- TGI (SR leukemia): 21.1 µM
- TGI (SW-620 colon): > 20.9 µM
- TGI (UACC-257 melanoma): 31.8 µM
- TGI (UACC-62 melanoma): 31.4 µM
- TGI (DLD-1 colon): 7.02 µM
- TGI (HCT-116 colon): 29.3 µM
- TGI (RPMI-8226 leukemia): 4.81 µM
- TGI (LOX IMVI melanoma): 31.8 µM
- TGI (NCI-H522 lung): 3.39 µM
- TGI (NCI-H460 lung): 45.8 µM
- TGI (COLO 205 colon): 33.4 µM
- TGI (HCT-15 colon): 15.9 µM
- TGI (M14 melanoma): 23.3 µM
- TGI (SNB-78 CNS): 34.4 µM
- TGI (KM12 colon): 25.6 µM
- TGI (TK-10 renal): 25.2 µM
- TGI (SF-539 CNS): 40 µM
- TGI (HOP-18 NSCLC): 31.2 µM
- TGI (SK-MEL-28 melanoma): 27.4 µM
- TGI (IGROV1 ovarian): 34.4 µM
- TGI (OVCAR-4 ovarian): 31 µM
- TGI (UO-31 renal): 32.3 µM
- TGI (CCRF-CEM leukemia): 9.54 µM
- TGI (OVCAR-5 ovarian): 30.9 µM
- TGI (ACHN renal): 21.4 µM
- TGI (RXF 393 renal): 27.9 µM
- TGI (HOP-92 NSCLC): 20.1 µM
- TGI (M19-MEL melanoma): 32.9 µM
- TGI (CAKI-1 renal): > 100 µM
- TGI (OVCAR-3 ovarian): 26.3 µM
- TGI (DMS 114 small cell lung): 25 µM

Structure (SMILES): CCOc1nc(OCC)nc(-c2cccn2-c2ccccc2)n1
- TGI (SF-295 CNS): > 100 µM
- TGI (HT29 colon): > 100 µM
- TGI (K-562 leukemia): > 100 µM
- TGI (HOP-62 NSCLC): > 100 µM
- TGI (A498 renal): > 100 µM
- TGI (NCI-H23 lung): > 100 µM
- TGI (HL-60(TB) leukemia): 82.5 µM
- TGI (SN12C renal): > 100 µM
- TGI (HCC-2998 colon): > 100 µM
- TGI (786-0 renal): > 100 µM
- TGI (RXF-631 renal): > 100 µM
- TGI (SK-OV-3 ovarian): 75 µM
- TGI (SF-268 CNS): > 100 µM
- TGI (SNB-19 CNS): > 100 µM
- TGI (U251 CNS): 48.6 µM
- TGI (SK-MEL-2 melanoma): 97.1 µM
- TGI (OVCAR-8 ovarian): > 100 µM
- TGI (MALME-3M melanoma): 60.6 µM
- TGI (NCI-H226 lung): > 100 µM
- TGI (MOLT-4 leukemia): 57.4 µM
- TGI (A549 NSCLC): > 100 µM
- TGI (EKVX NSCLC): > 100 µM
- TGI (DMS 273 small cell lung): > 100 µM
- TGI (SR leukemia): 99.7 µM
- TGI (SW-620 colon): > 100 µM
- TGI (UACC-257 melanoma): > 100 µM
- TGI (UACC-62 melanoma): > 100 µM
- TGI (HCT-116 colon): > 100 µM
- TGI (NCI-H522 lung): > 100 µM
- TGI (NCI-H460 lung): > 100 µM
- TGI (HCT-15 colon): > 100 µM
- TGI (M14 melanoma): > 100 µM
- TGI (SNB-78 CNS): > 100 µM
- TGI (KM12 colon): > 100 µM
- TGI (TK-10 renal): 89.2 µM
- TGI (SF-539 CNS): > 100 µM
- TGI (SK-MEL-28 melanoma): > 100 µM
- TGI (IGROV1 ovarian): 89.3 µM
- TGI (OVCAR-4 ovarian): > 100 µM
- TGI (UO-31 renal): 67.9 µM
- TGI (CCRF-CEM leukemia): > 100 µM
- TGI (OVCAR-5 ovarian): > 100 µM
- TGI (ACHN renal): > 100 µM
- TGI (RXF 393 renal): > 100 µM
- TGI (M19-MEL melanoma): > 100 µM
- TGI (CAKI-1 renal): > 100 µM
- TGI (OVCAR-3 ovarian): 69.3 µM
- TGI (DMS 114 small cell lung): 86.8 µM
